Reference: ChEMBL document CHEMBL1126186 (J Med Chem, 1992)

These compounds were tested against Glutamate receptor ionotropic, NMDA 1 (Rattus norvegicus, UniProt P35439) (assay: Compound was evaluated for its ability to displace [3H]TCP from PCP N-methyl-D-aspartate glutamate receptor in rat brain).
Format: tissue-based
c1ccc([C@]2(N3CCCCC3)C[C@H]3C[C@H]3C2)cc1 gave a Ki of 644 nM. In the case of c1ccc([C@]2(N3CCCCC3)CC[C@H]3C[C@H]32)cc1 (racemic), the Ki is reported as 582 nM. In the case of c1ccc(C2(N3CCCCC3)CCCCC2)cc1 [PHENCYCLIDINE], the Ki is reported as 64.5 nM. c1ccc([C@@]2(N3CCCCC3)C[C@H]3C[C@H]3C2)cc1 showed a Ki of 711 nM. c1ccc([C@@]2(N3CCCCC3)CC[C@H]3C[C@H]32)cc1 gave a Ki of 8220 nM. Compound c1ccc([C@]2(N3CCCCC3)CC[C@@H]3C[C@@H]32)cc1 has a Ki of 29000 nM.
